Measured values: US20260014179A1, “OLIGOSACCHARIDE COMPOSITION FOR USE IN THE REDUCTION OF THE LEVEL OF BRANCHED SHORT CHAIN FATTY ACIDS” (priority 2022, published 2026)

Test system: microbiota present in the faecal samples
Assay: Oligosaccharide distribution (HPAEC-PAD peak areas) during faecal fermentation
From the text: HPAEC-PAD (high performance anion exchange chromatography) equipped with a PA-1 column was used for separation of mono- and oligosaccharides of the different samples. Efforts were made to achieve a separation quality described in van Leeuwen et al., Carbohydrate Research 2016, 425, 48-58. […] The samples as used for GPC were 100-fold diluted with DMSO before injection.
The distribution of oligosaccharides in the mixtures was also monitored over this time period using the method described above in relation to Table 2.

Peak areas (in Comp. Ex. 1, 0 h) | Peak areas (in Comp. Ex. 1, 6 h, Donor A) | Peak areas (in Comp. Ex. 1, 6 h, Donor B) | Peak areas (in Comp. Ex. 1, 6 h, Donor C) | Peak areas (in Comp. Ex. 1, 24 h, Donor A) | Peak areas (in Comp. Ex. 1, 24 h, Donor B) | Peak areas (in Comp. Ex. 1, 24 h, Donor C) | Peak areas (in Comp. Ex. 1, 48 h, Donor A) | Peak areas (in Comp. Ex. 1, 48 h, Donor B) | Peak areas (in Comp. Ex. 1, 48 h, Donor C) | Peak areas (in Example 2, 0 h) | Peak areas (in Example 2, 6 h, Donor A) | Peak areas (in Example 2, 6 h, Donor B) | Peak areas (in Example 2, 6 h, Donor C) | Peak areas (in Example 2, 24 h, Donor A) | Peak areas (in Example 2, 24 h, Donor B) | Peak areas (in Example 2, 24 h, Donor C) | Peak areas (in Example 2, 48 h, Donor A) | Peak areas (in Example 2, 48 h, Donor B) | Peak areas (in Example 2, 48 h, Donor C) | SMILES
0.5 | 2.4 | 45.1 | 0.7 | 0.0 | 0.1 | 0.0 | 0.0 | 0.0 | 0.0 | 1.3 | 2.1 | 47.3 | 0.8 | 0.0 | 0.1 | 0.0 | 0.0 | 0.0 | 0.0 | O=C[C@H](O)[C@@H](O)[C@@H](O)[C@H](O)CO [Galactose]
19.5 | 2.9 | 34.1 | 0.2 | 0.0 | 0.1 | 0.0 | 0.0 | 0.0 | 0.0 | 17.5 | 2.6 | 26.9 | 0.3 | 0.0 | 0.0 | 0.0 | 0.0 | 0.0 | 0.0 | O=C[C@H](O)[C@@H](O)[C@H](O)[C@H](O)CO [Glucose]

SMILES | Peak areas (in Comp. Ex. 1, 0 h) | Peak areas (in Comp. Ex. 1, 6 h, Donor A) | Peak areas (in Comp. Ex. 1, 6 h, Donor B) | Peak areas (in Comp. Ex. 1, 6 h, Donor C) | Peak areas (in Comp. Ex. 1, 24 h, Donor A) | Peak areas (in Comp. Ex. 1, 24 h, Donor B) | Peak areas (in Comp. Ex. 1, 24 h, Donor C) | Peak areas (in Comp. Ex. 1, 48 h, Donor A) | Peak areas (in Comp. Ex. 1, 48 h, Donor B) | Peak areas (in Comp. Ex. 1, 48 h, Donor C) | Peak areas (in Example 2, 0 h) | Peak areas (in Example 2, 6 h, Donor A) | Peak areas (in Example 2, 6 h, Donor B) | Peak areas (in Example 2, 6 h, Donor C) | Peak areas (in Example 2, 24 h, Donor A) | Peak areas (in Example 2, 24 h, Donor B) | Peak areas (in Example 2, 24 h, Donor C) | Peak areas (in Example 2, 48 h, Donor A) | Peak areas (in Example 2, 48 h, Donor B) | Peak areas (in Example 2, 48 h, Donor C)
OC[C@H]1O[C@@H](O[C@H]2[C@H](O)[C@@H](O)C(O)O[C@@H]2CO)[C@H](O)[C@@H](O)[C@H]1O (stereo partly drawn) [Lactose] | 48.4 | 0.7 | 1.9 | 0.4 | 0.4 | 0.5 | 0.4 | 0.3 | 0.5 | 0.3 | 30.9 | 0.3 | 5.3 | 0.6 | 0.3 | 0.4 | 0.4 | 0.3 | 0.5 | 0.3
